The term IC50 denotes the concentration that inhibits the measured activity by half. The low end stands for greater potency, the high end for weaker potency.

3 molecules from PMC4774911, “Biochemical Screening of Five Protein Kinases from Plasmodium falciparum against 14,000 Cell-Active Compounds” (PLoS ONE, 2016) can be followed below.

Among the targets are MAPK7 (Homo sapiens, UniProt Q13164); MINK1 (Homo sapiens, UniProt Q8N4C8); ERN1 (Homo sapiens, UniProt O75460); MAP3K11 (Homo sapiens, UniProt Q16584); CDK10 (Homo sapiens, UniProt Q15131); STK17B (Homo sapiens, UniProt O94768).
What all share (assay): biochemical
The target of a further assay is MAP2K1 (Homo sapiens, UniProt Q02750). Details: endogenous in cells; host or cells: K562 cell extract; species or system K562 (extract); replicate k of n = 2 (each experiment ID is one independent experiment; two experiment IDs per compound). Particulars: read-out: KDapp.
A further assay has as its target CSNK2A1 (Homo sapiens, UniProt P68400). Also on record: endogenous in cells; host or cells: K562 cell extract; species or system K562 (extract); replicate k of n = 2 (each experiment ID is one independent experiment; two experiment IDs per compound). Particulars: read-out: KDapp.
The target in a further assay is T1, ULK1 (Homo sapiens, UniProt O75385).
T1 sequence (O75385 1-1050): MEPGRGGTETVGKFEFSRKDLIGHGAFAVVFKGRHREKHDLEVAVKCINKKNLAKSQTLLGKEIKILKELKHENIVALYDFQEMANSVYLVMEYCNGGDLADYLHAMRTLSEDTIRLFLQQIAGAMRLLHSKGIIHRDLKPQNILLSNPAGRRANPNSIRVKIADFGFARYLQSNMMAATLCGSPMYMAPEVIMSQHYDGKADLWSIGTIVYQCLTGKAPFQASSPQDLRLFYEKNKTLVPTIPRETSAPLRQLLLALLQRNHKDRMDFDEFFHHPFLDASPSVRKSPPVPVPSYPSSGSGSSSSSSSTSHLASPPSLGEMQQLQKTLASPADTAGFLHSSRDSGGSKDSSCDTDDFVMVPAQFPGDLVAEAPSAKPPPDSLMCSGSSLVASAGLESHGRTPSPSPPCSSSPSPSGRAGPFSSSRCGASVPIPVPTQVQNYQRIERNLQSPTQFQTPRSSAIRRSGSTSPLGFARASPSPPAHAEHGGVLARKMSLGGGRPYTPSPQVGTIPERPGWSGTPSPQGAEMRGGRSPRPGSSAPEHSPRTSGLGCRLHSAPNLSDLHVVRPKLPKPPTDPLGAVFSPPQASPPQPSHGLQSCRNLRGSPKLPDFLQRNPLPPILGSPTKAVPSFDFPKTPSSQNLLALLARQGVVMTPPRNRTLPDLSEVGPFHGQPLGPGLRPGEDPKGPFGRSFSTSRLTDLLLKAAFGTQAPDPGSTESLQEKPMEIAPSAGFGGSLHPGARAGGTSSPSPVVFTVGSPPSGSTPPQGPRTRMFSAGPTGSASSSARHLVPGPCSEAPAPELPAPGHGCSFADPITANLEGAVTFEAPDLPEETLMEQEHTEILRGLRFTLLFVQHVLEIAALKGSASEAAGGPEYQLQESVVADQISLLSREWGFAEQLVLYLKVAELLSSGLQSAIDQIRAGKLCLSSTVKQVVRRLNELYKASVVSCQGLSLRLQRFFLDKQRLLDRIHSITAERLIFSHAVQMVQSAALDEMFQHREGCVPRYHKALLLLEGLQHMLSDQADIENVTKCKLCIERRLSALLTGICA

The target in the next assay is T2, IKBKE (Homo sapiens, UniProt Q14164).
T2 sequence (Q14164 1-716): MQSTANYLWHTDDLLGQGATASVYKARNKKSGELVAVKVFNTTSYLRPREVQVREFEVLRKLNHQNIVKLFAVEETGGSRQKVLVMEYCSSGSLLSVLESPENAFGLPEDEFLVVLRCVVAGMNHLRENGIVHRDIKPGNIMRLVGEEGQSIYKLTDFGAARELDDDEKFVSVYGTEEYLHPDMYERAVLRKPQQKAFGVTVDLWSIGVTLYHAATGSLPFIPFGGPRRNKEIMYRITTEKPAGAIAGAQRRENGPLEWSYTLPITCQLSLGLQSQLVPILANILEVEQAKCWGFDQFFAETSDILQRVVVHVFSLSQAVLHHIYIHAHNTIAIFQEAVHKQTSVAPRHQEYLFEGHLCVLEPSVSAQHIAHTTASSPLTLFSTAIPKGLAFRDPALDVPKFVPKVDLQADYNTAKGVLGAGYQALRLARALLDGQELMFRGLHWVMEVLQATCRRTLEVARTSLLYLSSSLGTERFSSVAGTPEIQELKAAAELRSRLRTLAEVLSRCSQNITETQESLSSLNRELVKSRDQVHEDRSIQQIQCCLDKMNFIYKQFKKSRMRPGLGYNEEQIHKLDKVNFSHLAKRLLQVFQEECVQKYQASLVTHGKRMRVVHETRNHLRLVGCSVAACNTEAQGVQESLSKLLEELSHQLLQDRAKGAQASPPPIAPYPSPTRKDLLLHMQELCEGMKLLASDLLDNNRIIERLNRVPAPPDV

Another assay addresses T3, TGFBR1 (Homo sapiens, UniProt P36897).
T3 sequence (P36897 1-503): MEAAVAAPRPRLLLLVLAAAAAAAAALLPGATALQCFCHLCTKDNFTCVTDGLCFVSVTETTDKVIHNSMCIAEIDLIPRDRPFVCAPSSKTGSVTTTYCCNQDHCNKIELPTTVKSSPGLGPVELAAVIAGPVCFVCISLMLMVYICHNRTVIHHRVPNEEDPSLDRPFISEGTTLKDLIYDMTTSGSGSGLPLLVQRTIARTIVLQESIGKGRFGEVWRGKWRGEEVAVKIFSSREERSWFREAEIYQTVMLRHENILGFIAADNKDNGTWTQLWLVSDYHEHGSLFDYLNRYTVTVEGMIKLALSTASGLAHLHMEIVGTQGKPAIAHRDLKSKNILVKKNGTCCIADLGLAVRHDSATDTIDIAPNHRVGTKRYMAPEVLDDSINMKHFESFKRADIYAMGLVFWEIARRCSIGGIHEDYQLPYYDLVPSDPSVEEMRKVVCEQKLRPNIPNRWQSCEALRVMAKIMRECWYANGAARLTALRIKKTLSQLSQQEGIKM

SMILES strings stand for the structures. Several values for one entry are separate records, joined by “and”; a condition that tells them apart may be missing. Equal entries are not always repeated.

Sequence of MAP2K1 (Q02750 whole entry): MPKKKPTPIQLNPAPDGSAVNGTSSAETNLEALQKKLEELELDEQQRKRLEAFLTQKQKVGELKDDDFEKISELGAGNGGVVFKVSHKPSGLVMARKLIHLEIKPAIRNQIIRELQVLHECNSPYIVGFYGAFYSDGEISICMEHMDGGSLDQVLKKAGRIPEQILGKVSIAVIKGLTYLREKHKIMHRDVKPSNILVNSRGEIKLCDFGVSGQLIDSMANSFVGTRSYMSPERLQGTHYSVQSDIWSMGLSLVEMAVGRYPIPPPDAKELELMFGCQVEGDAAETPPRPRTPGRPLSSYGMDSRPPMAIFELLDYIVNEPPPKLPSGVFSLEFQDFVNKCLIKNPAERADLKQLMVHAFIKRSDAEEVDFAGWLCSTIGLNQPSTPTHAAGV
Sequence of MAP3K11 (Q16584 whole entry): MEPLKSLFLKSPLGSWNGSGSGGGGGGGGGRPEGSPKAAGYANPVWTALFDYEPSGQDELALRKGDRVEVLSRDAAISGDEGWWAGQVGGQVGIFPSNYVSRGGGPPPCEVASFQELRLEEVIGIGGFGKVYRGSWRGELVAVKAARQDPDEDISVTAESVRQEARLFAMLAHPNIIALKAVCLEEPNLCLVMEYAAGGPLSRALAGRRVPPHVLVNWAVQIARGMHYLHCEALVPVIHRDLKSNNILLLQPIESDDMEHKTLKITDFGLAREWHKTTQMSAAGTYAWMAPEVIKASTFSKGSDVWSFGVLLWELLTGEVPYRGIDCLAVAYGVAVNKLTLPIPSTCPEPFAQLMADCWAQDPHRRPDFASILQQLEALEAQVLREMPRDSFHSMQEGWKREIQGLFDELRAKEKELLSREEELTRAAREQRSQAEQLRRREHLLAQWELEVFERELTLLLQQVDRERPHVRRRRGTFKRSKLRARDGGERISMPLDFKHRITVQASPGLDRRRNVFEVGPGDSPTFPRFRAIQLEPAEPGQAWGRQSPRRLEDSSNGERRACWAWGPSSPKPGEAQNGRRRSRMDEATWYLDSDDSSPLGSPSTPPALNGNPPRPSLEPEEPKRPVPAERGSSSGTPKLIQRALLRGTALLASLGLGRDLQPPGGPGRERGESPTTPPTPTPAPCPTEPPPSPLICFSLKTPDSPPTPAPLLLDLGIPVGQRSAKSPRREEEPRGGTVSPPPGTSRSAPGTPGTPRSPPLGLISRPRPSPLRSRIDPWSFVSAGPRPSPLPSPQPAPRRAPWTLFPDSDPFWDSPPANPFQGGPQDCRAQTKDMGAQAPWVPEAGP
Sequence of MAPK7 (Q13164 whole entry): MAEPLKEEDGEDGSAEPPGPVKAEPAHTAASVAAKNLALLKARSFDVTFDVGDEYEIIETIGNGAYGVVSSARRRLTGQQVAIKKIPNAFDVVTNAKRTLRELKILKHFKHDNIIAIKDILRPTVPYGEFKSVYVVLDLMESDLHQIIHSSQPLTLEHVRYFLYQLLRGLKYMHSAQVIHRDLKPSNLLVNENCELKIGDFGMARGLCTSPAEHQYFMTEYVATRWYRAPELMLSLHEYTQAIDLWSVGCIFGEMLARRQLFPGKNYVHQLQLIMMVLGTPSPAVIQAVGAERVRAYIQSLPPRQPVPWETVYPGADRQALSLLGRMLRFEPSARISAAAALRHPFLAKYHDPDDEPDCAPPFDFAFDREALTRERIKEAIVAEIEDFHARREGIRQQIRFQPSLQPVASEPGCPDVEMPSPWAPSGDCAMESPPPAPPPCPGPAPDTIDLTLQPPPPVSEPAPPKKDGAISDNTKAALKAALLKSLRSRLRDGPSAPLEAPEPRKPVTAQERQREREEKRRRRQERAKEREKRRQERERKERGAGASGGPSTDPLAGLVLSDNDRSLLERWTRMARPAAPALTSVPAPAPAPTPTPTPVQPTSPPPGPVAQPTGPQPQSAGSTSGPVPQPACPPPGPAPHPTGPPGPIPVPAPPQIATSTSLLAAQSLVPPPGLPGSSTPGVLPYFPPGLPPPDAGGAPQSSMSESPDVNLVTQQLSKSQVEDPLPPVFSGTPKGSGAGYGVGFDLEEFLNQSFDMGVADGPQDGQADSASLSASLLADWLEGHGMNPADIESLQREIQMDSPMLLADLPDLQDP
Sequence of MINK1 (Q8N4C8 whole entry): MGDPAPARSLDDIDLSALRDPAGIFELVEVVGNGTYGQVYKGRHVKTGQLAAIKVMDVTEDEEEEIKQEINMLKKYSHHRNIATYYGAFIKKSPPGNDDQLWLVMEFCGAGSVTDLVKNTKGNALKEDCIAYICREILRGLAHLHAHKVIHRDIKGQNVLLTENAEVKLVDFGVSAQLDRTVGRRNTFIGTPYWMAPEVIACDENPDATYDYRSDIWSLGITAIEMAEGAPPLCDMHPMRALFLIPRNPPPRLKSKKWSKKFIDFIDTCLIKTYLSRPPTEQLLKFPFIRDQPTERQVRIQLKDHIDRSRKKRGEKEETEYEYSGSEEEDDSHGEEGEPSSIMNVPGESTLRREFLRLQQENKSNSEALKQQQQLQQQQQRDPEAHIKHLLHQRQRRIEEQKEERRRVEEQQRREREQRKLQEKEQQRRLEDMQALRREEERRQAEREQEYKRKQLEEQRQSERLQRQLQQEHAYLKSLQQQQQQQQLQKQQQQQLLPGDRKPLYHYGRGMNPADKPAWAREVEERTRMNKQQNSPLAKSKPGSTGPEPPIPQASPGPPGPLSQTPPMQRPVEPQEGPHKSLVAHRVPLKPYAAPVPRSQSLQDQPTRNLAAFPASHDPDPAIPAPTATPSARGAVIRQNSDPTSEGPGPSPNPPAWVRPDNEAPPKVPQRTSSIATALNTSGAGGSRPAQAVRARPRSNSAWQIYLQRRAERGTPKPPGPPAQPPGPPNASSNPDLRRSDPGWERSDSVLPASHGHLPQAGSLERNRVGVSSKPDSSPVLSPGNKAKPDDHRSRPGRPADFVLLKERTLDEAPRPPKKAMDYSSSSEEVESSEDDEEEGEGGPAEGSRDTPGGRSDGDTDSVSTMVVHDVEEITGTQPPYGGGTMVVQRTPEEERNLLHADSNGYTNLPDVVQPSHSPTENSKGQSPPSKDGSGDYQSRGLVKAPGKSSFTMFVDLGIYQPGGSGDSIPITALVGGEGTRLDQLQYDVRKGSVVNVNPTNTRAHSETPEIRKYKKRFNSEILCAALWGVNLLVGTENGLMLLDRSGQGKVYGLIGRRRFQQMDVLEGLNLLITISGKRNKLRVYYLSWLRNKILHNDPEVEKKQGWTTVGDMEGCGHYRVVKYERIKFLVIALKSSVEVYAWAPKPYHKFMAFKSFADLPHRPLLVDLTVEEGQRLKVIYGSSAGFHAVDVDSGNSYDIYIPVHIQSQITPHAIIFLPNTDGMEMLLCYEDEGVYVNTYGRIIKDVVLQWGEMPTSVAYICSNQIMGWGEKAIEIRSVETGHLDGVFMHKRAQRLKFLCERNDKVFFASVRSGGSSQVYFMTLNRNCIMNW
Sequence of CSNK2A1 (P68400 whole entry): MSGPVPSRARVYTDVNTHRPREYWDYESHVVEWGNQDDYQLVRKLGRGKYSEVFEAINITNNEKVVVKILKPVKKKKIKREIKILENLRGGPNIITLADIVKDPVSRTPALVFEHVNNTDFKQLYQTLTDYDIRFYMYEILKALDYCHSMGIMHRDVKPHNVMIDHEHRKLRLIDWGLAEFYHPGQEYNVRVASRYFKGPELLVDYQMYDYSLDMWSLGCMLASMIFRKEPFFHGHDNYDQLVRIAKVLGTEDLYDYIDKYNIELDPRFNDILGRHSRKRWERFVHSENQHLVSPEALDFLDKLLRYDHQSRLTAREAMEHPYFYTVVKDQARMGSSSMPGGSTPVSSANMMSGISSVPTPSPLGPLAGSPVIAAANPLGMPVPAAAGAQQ
Sequence of STK17B (O94768 whole entry): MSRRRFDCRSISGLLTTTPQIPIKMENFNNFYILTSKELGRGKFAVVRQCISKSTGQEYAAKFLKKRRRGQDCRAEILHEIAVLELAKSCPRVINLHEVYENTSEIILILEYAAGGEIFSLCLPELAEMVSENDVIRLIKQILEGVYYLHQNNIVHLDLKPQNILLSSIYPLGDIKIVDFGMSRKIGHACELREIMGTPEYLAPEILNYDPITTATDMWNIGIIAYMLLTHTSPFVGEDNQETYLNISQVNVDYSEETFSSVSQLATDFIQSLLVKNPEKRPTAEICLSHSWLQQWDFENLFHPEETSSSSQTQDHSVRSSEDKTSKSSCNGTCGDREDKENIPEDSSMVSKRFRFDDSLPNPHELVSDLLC
Sequence of CDK10 (Q15131 whole entry): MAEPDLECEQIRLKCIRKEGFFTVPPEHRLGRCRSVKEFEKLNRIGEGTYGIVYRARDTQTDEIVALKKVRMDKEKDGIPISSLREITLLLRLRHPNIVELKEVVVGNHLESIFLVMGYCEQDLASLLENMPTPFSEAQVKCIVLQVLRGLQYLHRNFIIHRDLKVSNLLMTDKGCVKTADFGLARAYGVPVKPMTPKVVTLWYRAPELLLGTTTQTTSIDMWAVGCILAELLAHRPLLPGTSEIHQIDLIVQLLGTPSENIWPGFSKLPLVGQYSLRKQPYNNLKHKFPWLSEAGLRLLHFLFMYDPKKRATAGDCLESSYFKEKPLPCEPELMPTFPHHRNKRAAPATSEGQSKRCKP

As for `CN1CCN(c2ccc(Nc3ncc(C#N)c(Nc4ccccc4C(N)=O)n3)cc2)CC1.Cl` [TCMDC-134116], the Kd at MAP2K1 is 1630 nM and 1450 nM; at CSNK2A1, 23.5 nM. The IC50 against ULK1 is 160 nM; at MAPK7 it was 280 nM and 380 nM; against MINK1, 290 nM; at IKBKE it was 1800 nM; against ERN1, 170 nM; against MAP3K11 it was 89 nM.

Consider `Cl.NCC1(c2nc(-c3ccc(Cl)c(O)c3)c(-c3ccncc3)[nH]2)CCCCC1` [TCMDC-141154], for which, on MAP2K1, the Kd came to 8760 nM. The IC50 at ULK1 is over 20000 nM; against MAPK7, 1100 nM and 1900 nM; against TGFBR1, 95 nM and 140 nM; at MINK1, 1400 nM; against CDK10, over 20000 nM; against STK17B, over 20000 nM.

Regarding `CN(C)CC(O)COc1ccc(Nc2ncc([N+](=O)[O-])c(Nc3ccccc3O)n2)cc1.O=C(O)C(F)(F)F` (stereo not shown) [TCMDC-141399], the Kd at CSNK2A1 came out at 63.5 nM. The IC50 against TGFBR1 is over 20000 nM; at CDK10, 1600 nM; against IKBKE it was over 20000 nM; on ERN1, over 20000 nM; on STK17B it was over 20000 nM; against MAP3K11, 1400 nM and 630 nM.
